Data published in patent US20220411726A1, “STABILIZED LIQUID BORON-FREE ENZYME COMPOSITIONS” (Novozymes A/S, priority 2019, published 2022).
One block for each compound: values may come before it.

Key:
[1] = tested on: aqueous protease solution; test: Physical stability of a protease solution with 1,2-hexanediol or glycerol (visual inspection and NTU); format: physicochemical; conditions: additive 10% w/w; protease 6.8% w/w; 4 weeks at 25° C.
Description: (§1) Physical stability is the ability to maintain a transparent, preferably clear, composition. This may be evaluated by visual inspection, or by centrifugation. For example, the liquid composition may centrifugated at 1200 G for 10 minutes to determine if a pellet (solid phase) is formed. Alternatively, transparency may be measured as turbidity or haziness, by using a nephelometer to measure NTU to determine light scattering.
(§2) An aqueous protease solution and an aqueous pectate lyase solution were formulated with 10% w/w water, 10% w/w 1,2-hexanediol, or 10% w/w glycerol to a final enzyme protein concentration of 6.8% w/w and 8.1% w/w, respectively. The physical stability was evaluated after storage for 4 weeks at 25° C., by visual inspection and by NTU measurements, as shown in Table 4.

[2] = tested on: aqueous pectate lyase solution; test: Physical stability of a pectate lyase solution with 1,2-hexanediol or glycerol (visual inspection and NTU); format: physicochemical; conditions: additive 10% w/w; pectate lyase 8.1% w/w; 4 weeks at 25° C.
Description: as §1, §2

[3] = tested on: Mannanase; test: Increase in enzyme solubility (supernatant enzyme activity), mannanase; format: physicochemical; conditions: mannanase suspension, 2 hours at room temperature
Description: (§3) An aqueous enzyme solution produced via fermentation of microorganism and recovered by removal of cells were concentrated using ultrafiltration to form a supersaturated protein solution. The solution was cooled below 5° C. for more than 24 hours to generate protein precipitate. The protein precipitate was suspended in the cold solution by shaking before use. Water and 1,2-hexanediol or glycerol were added to the protein suspension to obtain a diluted protein suspension with the indicated concentration of 1,2-hexanediol or glycerol while keeping the dilution of the protein suspension constant (70% w/w protein suspension to 30% w/w water/1,2-hexanediol/glycerol). The diluted protein suspensions were mixed for 2 hours at room temperature on a magnetic stirred followed by centrifugation to generate a clear supernatant. The obtained supernatant was analyzed for enzyme activity. The data in Table 5 show how much the enzyme solubility (enzyme activity) has increased compared to the reference sample, which only contains water.

[4] = tested on: Protease; test: Increase in enzyme solubility (supernatant enzyme activity), protease; format: physicochemical; conditions: protease suspension, 2 hours at room temperature
Description: as §3

[5] = tested on: Pectate lyase; test: Increase in enzyme solubility (supernatant enzyme activity), pectate lyase; format: physicochemical; conditions: pectate lyase suspension, 2 hours at room temperature
Description: as §3

[6] = tested on: aqueous amylase solution; test: Physical stability of an amylase solution with 1,2-octanediol (visual inspection and NTU); format: physicochemical; conditions: 0.3% w/w 1,2-octanediol, amylase 4.3% w/w, 40% w/w glycerol, pH 4.8
Description: as §1
An aqueous amylase solution was formulated with 40% w/w glycerol at pH 4.8 to a final enzyme protein concentration of 4.3% w/w. A sample was prepared by adding 0.3% w/w 1,2-octanediol to the amylase solution, and the physical stability was evaluated by visual inspection and NTU measurement, as shown in Table 2.

[7] = tested on: aqueous lipase solution; test: Physical stability of a lipase solution with 1,2-hexanediol or 1,2-octanediol (visual inspection); format: physicochemical; conditions: lipase 3% w/w, 15% w/w sorbitol, 6% w/w MPG
Description: as §1
An aqueous lipase solution was formulated with 15% w/w sorbitol and 6% w/w MPG to a final enzyme protein concentration of 3% w/w. Two samples were prepared by adding 1% w/w 1,2-hexanediol or 0.3% w/w 1,2-octanediol to the lipase solution.

[8] = tested on: Escherichia coli, Pseudomonas aeruginosa, Salmonella havana, Acinetobacter spp., Staphylococcus aureus, Staphylococcus xylosus, Enterococcus faecium; test: Microbial stability challenge of protease formulation, bottle 1; format: cell-based; conditions: inoculated to 10^5 CFU/mL
Description: (§4) An aqueous protease (subtilisin) solution was formulated with 40% w/w glycerol at pH 6.0 to a final enzyme protein concentration of 5.5% w/w. Two samples were prepared by adding 4% w/w 1,2-hexanediol or 0.3% w/w 1,2-octanediol to the protease solution.
(§5) This was done by challenging the formulations with the microorganisms in Table 7. Each of the three bottles in Table 8 were inoculated to a total of 10^5 CFU/mL of the test microorganisms.
(§6) The bottles were analyzed for CFU/mL after 2 and 4 weeks of incubation at 20-25° C. CFU (colony forming units) per mL was measured using standard microbiological methods.

[9] = tested on: Lactobacillus buchneri, Lactobacillus para paracasei; test: Microbial stability challenge of protease formulation, bottle 2; format: cell-based; conditions: inoculated to 10^5 CFU/mL
Description: as §4, §5, §6

[10] = tested on: Aspergillus niger, Candida parapsilosis, Candida famata; test: Microbial stability challenge of protease formulation, bottle 3; format: cell-based; conditions: inoculated to 10^5 CFU/mL
Description: as §4, §5, §6

[11] = tested on: amylase (Fortiva Revo from Novozymes); test: Turbidity of commercial liquid amylase product after addition of 1,2-hexanediol (nephelometer); format: physicochemical
Description: (§7) The transparency (turbidity) of two commercial liquid protease (Fermax from Novozymes) and amylase (Fortiva Revo from Novozymes) products were evaluated before and after addition of different amounts of 1,2-hexanediol.

[12] = tested on: protease (Fermax from Novozymes); test: Turbidity of commercial liquid protease product after addition of 1,2-hexanediol (nephelometer); format: physicochemical
Description: as §7

[13] = tested on: protease (subtilisin); test: Enzymatic stability: residual activity of protease after 4 weeks storage; format: physicochemical
Description: Enzymatic stability is the ability to maintain enzymatic activity after storage. This may be determined by measuring the enzymatic activity before and after storage (for example, 4 weeks storage at 25° C.) to determine how much activity is lost. For practical purposes, the residual activity may be determined by comparing the activity of a stored sample and a frozen reference sample, which are analyzed at the same time to eliminate analytical day-to-day variation.
An aqueous protease (subtilisin) solution was produced via fermentation of microorganism, recovered by removal of cells and concentrated using ultrafiltration. Water and 1,2-hexanediol were added to the protease solution to obtain a diluted protease solution with the indicated concentration of 1,2-hexanediol while keeping the dilution of the protease solution constant (70 w/w % protease solution to 30% w/w water/1,2-hexanediol). The diluted protease solutions were incubated in closed vials at −18° C., 25° C. and 40° C. for 4 weeks. The protease activity was measured in the stored samples and residual activity calculated by using protease activity in samples stored at −18° C. as reference.

[14] = 0.3% w/w 1,2-octanediol, 2 weeks at 20-25° C.
[15] = 0.3% w/w 1,2-octanediol, 4 weeks at 20-25° C.
[16] = 4% w/w 1,2-hexanediol, 2 weeks at 20-25° C.
[17] = 4% w/w 1,2-hexanediol, 4 weeks at 20-25° C.

SMILES: OCC(O)CO [Glycerol, glycerol, reference compound]
Turbidity [1]: 71.2 NTU
Visual score [1]: precipitate
Turbidity [2]: 540 NTU
Visual score [2]: precipitate
Increase in enzyme solubility (enzyme activity) compared to the reference sample ([3]; additive 2% w/w): 10%
Increase in enzyme solubility (enzyme activity) compared to the reference sample ([3]; additive 5% w/w): 41%
Increase in enzyme solubility (enzyme activity) compared to the reference sample ([4]; additive 2% w/w): 0%
Increase in enzyme solubility (enzyme activity) compared to the reference sample ([4]; additive 5% w/w): 3%
Increase in enzyme solubility (enzyme activity) compared to the reference sample ([5]; additive 2% w/w): 10%
Increase in enzyme solubility (enzyme activity) compared to the reference sample ([5]; additive 5% w/w): 32%

Turbidity ([6]; 4 weeks at 5° C.): 19.1 NTU
Visual score ([6]; 4 weeks at 5° C.): haze
Turbidity ([6]; 4 weeks at 25° C.): 11.9 NTU
Visual score ([6]; 4 weeks at 25° C.): haze
Turbidity ([6]; 4 weeks at 40° C.): 12.7 NTU
Visual score ([6]; 4 weeks at 40° C.): haze
Physical stability by visual inspection ([7]; 0.3% w/w 1,2-octanediol, 4 weeks at 5° C.): clear
Physical stability by visual inspection ([7]; 0.3% w/w 1,2-octanediol, 4 weeks at 25° C.): clear
Physical stability by visual inspection ([7]; 0.3% w/w 1,2-octanediol, 4 weeks at 40° C.): haze
SMILES: CCCCCCC(O)CO (stereo not drawn) [1,2-octanediol]
Microbial stability, measured as CFU/mL [8, 14]: 3.0 × 10^2 CFU/mL
Microbial stability, measured as CFU/mL [8, 15]: <1.0 × 10^2 CFU/mL
Microbial stability, measured as CFU/mL [9, 14]: <1.0 × 10^2 CFU/mL
Microbial stability, measured as CFU/mL [9, 15]: <1.0 × 10^2 CFU/mL
Microbial stability, measured as CFU/mL [10, 14]: 7.0 × 10^2 CFU/mL
Microbial stability, measured as CFU/mL [10, 15]: <1.0 × 10^2 CFU/mL

SMILES: CCCCC(O)CO (stereo not drawn) [1,2-hexanediol]
Turbidity ([11]; 5% w/w 1,2-hexanediol added to liquid amylase product): 17.2 NTU
Turbidity ([11]; 10% w/w 1,2-hexanediol added to liquid amylase product): 14.6 NTU
Turbidity ([12]; 5% w/w 1,2-hexanediol added to liquid protease product): 21.2 NTU
Turbidity ([12]; 10% w/w 1,2-hexanediol added to liquid protease product): 11.7 NTU
Physical stability by visual inspection ([7]; 1% w/w 1,2-hexanediol, 4 weeks at 5° C.): clear
Physical stability by visual inspection ([7]; 1% w/w 1,2-hexanediol, 4 weeks at 25° C.): haze
Physical stability by visual inspection ([7]; 1% w/w 1,2-hexanediol, 4 weeks at 40° C.): precipitate
Turbidity [1]: 9.4 NTU
Visual score [1]: clear
Turbidity [2]: 31.2 NTU
Visual score [2]: haze
Increase in enzyme solubility (enzyme activity) compared to the reference sample ([3]; additive 2% w/w): 7%
Increase in enzyme solubility (enzyme activity) compared to the reference sample ([3]; additive 5% w/w): 48%
Increase in enzyme solubility (enzyme activity) compared to the reference sample ([4]; additive 2% w/w): 11%
Increase in enzyme solubility (enzyme activity) compared to the reference sample ([4]; additive 5% w/w): 47%
Increase in enzyme solubility (enzyme activity) compared to the reference sample ([5]; additive 2% w/w): 32%
Increase in enzyme solubility (enzyme activity) compared to the reference sample ([5]; additive 5% w/w): 66%
Residual activity of protease after 4 weeks storage ([13]; 2% w/w 1,2-hexanediol, 25° C.): 48%
Residual activity of protease after 4 weeks storage ([13]; 2% w/w 1,2-hexanediol, 40° C.): 8%
Residual activity of protease after 4 weeks storage ([13]; 2% w/w 1,2-hexanediol, −18° C. (reference temperature for the calculation)): 100%
Residual activity of protease after 4 weeks storage ([13]; 5% w/w 1,2-hexanediol, 25° C. (room temperature)): 77%
Residual activity of protease after 4 weeks storage ([13]; 5% w/w 1,2-hexanediol, 40° C.): 14%
Residual activity of protease after 4 weeks storage ([13]; 5% w/w 1,2-hexanediol, −18° C. (reference temperature for the calculation)): 100%
Microbial stability, measured as CFU/mL [8, 16]: <1.0 × 10^2 CFU/mL
Microbial stability, measured as CFU/mL [8, 17]: <1.0 × 10^2 CFU/mL
Microbial stability, measured as CFU/mL [9, 16]: <1.0 × 10^2 CFU/mL
Microbial stability, measured as CFU/mL [9, 17]: <1.0 × 10^2 CFU/mL
Microbial stability, measured as CFU/mL [10, 16]: <1.0 × 10^2 CFU/mL
Microbial stability, measured as CFU/mL [10, 17]: <1.0 × 10^2 CFU/mL
